Data taken from patent US11638425B2, “Agent for inducing stress tolerance in plants” (Menicon Co. Ltd., priority 2017, dated 2023).

How the values were obtained:
Assay type in all cases: in vivo
[1] = test system: HSP17.6C-C1 of Arabidopsis thaliana; assay: HSP expression test (HSP17.6C-C1 upstream region linked to GUS, 4-MU production); design: key: 4-MU per plant divided by 4-MU of 50 μM geldanamycin positive control; details: soaked 6 hours at 22° C., positive control 50 μM geldanamycin
Description: First, a construct linked to β-glucuronidase (GUS) gene was introduced to 1 kb upstream of HSP17.6C-C1 of Arabidopsis thaliana (the family Brassicaceae) to prepare a mutant. Each naphthoquinone compound (shown in Table 1) dissolved in DMSO was diluted to 1 μM, 10 μM, 100 μM, or 1000 μM (final concentration) with deionized water to prepare a test solution of each example (final concentration of DMSO: 1.0% by volume). A 50 μM geldanamycin solution was similarly prepared as a positive control.
Next, two individuals of 7-day-old Arabidopsis thaliana mutants grown in a ⅕ MS medium were soaked in 300 μL of the test solution of each example or the positive control at 22° C. for 6 hours. The Arabidopsis thaliana was washed with deionized water, then soaked in 200 μL of a 4-methylumbelliferyl-β-D-glucuronide hydrate solution containing a surfactant, and incubated at 22° C. for 16 hours in the dark. The fluorescence intensity of the supernatant was measured, and the amount of 4-methylumbelliferone (4-MU) production per plant was calculated. The calculated value of 4-MU was divided by the value of 4-MU of the positive control to calculate a ratio vs. positive control. A higher numerical value means that HSP was expressed at a larger level.
Each shikonin compound or alkannin compound (shown in Table 2) dissolved in DMSO was diluted to 1 μM, 10 μM, 100 μM, or 1000 μM (final concentration) with deionized water to prepare a test solution of each example (final concentration of DMSO: 1.0% by volume). A 50 μM geldanamycin solution was similarly prepared as a positive control. The other test procedures were performed in the same way as in Test Example 1. The calculated value of 4-MU was divided by the value of 4-MU of the positive control to calculate a ratio vs. positive control. […]

Arabidopsis thaliana = assay: Heat tolerance induction test based on chlorophyll concentration; details: 50 μM in medium; heat-treated at 44° C. for 1 hour; 3 days culture after
Description: A ⅕ MS medium was prepared in a 6-well plate, and filter paper was placed thereon. 12 individuals of wild-type Arabidopsis thaliana were seeded per well and grown at 22° C. for 7 days in a plant incubator under 16-hour light and 8-hour dark conditions. Next, the naphthoquinone compound of each example (shown in Table 3) dissolved in DMSO was added to a ⅕ MS medium, and each medium (final concentration: 50 μM) was prepared in a 6-well plate (final concentration of DMSO: 1.0% by volume). A medium containing 1.0% by volume of DMSO was used as a control.
The Arabidopsis thaliana grown for 7 days in the 6-well plate was transplanted, together with the filter paper, to the medium containing the compound and cultured for 1 day in a plant incubator. The plate was placed in a plastic bag and heat-treated at 44° C. for 1 hour in a water bath. After the heat treatment, culture was performed for 3 days in a plant incubator. The leaves of 4 Arabidopsis thaliana individuals were cut out, and chlorophyll was extracted with 300 μL of ethanol. The absorbance of each extract was measured at 649 nm and 665 nm, and the chlorophyll concentration (mg/L) was calculated. A higher chlorophyll concentration means that heat tolerance is better.
The shikonin compound of each example (shown in Table 4) dissolved in DMSO was added to a ⅕ MS medium, and each medium (final concentration: 50 μM) was prepared in a 6-well plate (final concentration of DMSO: 1.0% by volume). A medium containing 1% by volume of DMSO was used as a control. The other test procedures were performed in the same way as in Test Example 3.
The Lithospermi radix extract used was Shikonix Liquid (BG) (trade name, manufactured by Ichimaru Pharcos Co., Ltd.) containing a Lithospermum erythrorhizon root extract. The Shikonix Liquid contained, as major components, shikonin compounds such as acetylshikonin, β-hydroxyisovalerylshikonin, and isobutyrylshikonin. The Shikonix Liquid also contained, as additional minor components, α-methyl-n-butylshikonin, β,β-dimethylacrylshikonin, isovalerylshikonin, and shikonin.
The Shikonix Liquid (BG) was added at a dilution ratio of 150-fold to a ⅕ MS medium. The same amount of water was added as a control. ThermoZyme (manufactured by Fujimikogyo Co., Ltd.) was added at a dilution ratio of 150-fold as a positive control (Reference Example). The other test procedures were performed in the same way as in Test Example 3.

maize [2] = assay: Drought tolerance improvement test of maize; details: 10 μM, 2 mL/cell; 19 days without water, counted 5 days after water addition
Description: Four parts each involving 9 cells (3×3) were cut out of a 72-cell tray. Seedling soil was placed therein, and water was added. 4 seeds of maize were seeded per cell. The temperature was set to 20° C. using a plant growth chamber, followed by cultivation under 16-hour light and 8-hour dark conditions. After budding, each naphthoquinone compound dissolved in DMSO was diluted to 10 μM (final concentration) with deionized water to prepare a test solution of each example (final concentration of DMSO: 1.0% by volume). Each test solution was sprayed to leaf surface in one of the cell trays. The volume of the test solution sprayed was set to 2 mL/cell. The same volume of water was sprayed to the other cell tray and used as a control. After the spraying, cultivation was continued without the addition of water. 19 days after the spraying, water was added to the soil. 5 days after the water addition, the number of maize survivors was counted and divided by the initial number of growing plants to calculate a survival rate (%).

maize [3] = assay: Salt tolerance improvement test of maize; details: 10 μM, 2 mL/cell; 1.0% NaCl five times every two days; fresh weight
Description: (§1) Two parts each involving 9 cells (3×3) were cut out of a 72-cell tray. Seedling soil was placed therein, and water was added. 4 seeds of maize were seeded per cell. The temperature was set to 20° C. using a plant growth chamber, followed by cultivation under 16-hour light and 8-hour dark conditions. After budding, Shikonix Liquid (BG) (manufactured by Ichimaru Pharcos Co., Ltd.) was diluted 500-fold and sprayed as the Lithospermi radix extract to leaf surface in one of the cell trays. The volume of the Shikonix Liquid sprayed was set to 2 mL/cell. The same volume of water was sprayed to the other cell tray and used as a control. Two days later, a 1.0% NaCl solution was prepared and absorbed from the underside of each cell tray. The NaCl solution treatment was performed five times every two days. The above-ground parts were cut off, and their fresh weights were measured. An average value (g/plant) was calculated.
as §1, with “Four parts” for “Two parts”, “budding, each naphthoquinone compound dissolved in DMSO” for “budding, Shikonix Liquid (BG) (manufactured by Ichimaru Pharcos Co., Ltd.)”, “diluted to 10 μM (final concentration) with deionized water to prepare a test solution of each example (final concentration of DMSO: 1.0% by volume). Each test solution was” for “diluted 500-fold and”, “sprayed” for “sprayed as the Lithospermi radix extract”, “the test solution” for “the Shikonix Liquid”

O=C1C=CC(=O)c2ccccc21 [Example 1, 1,4-Naphthoquinone]
Ratio of 4-MU amount vs. positive control ([1]; 1 μM): 0.13 | Ratio of 4-MU amount vs. positive control ([1]; 10 μM): 0.76 | Ratio of 4-MU amount vs. positive control ([1]; 100 μM): 0.27 | Ratio of 4-MU amount vs. positive control ([1]; 1000 μM): 0.03

CC(C)=CCC(OC(=O)C=C(C)C)C1=CC(=O)c2c(O)ccc(O)c2C1=O (stereo not drawn) [Example 19, β,β-Dimethylacrylshikonin]
Ratio of 4-MU amount vs. positive control ([1]; 1 μM): 0.02 | Ratio of 4-MU amount vs. positive control ([1]; 10 μM): 0.95 | Ratio of 4-MU amount vs. positive control ([1]; 100 μM): 1.35 | Ratio of 4-MU amount vs. positive control ([1]; 1000 μM): 2.28

CC(C)=CC[C@@H](OC(=O)C(C)C)C1=CC(=O)c2c(O)ccc(O)c2C1=O [Example 15, Isobutyrylshikonin]
Ratio of 4-MU amount vs. positive control ([1]; 1 μM): 0.03 | Ratio of 4-MU amount vs. positive control ([1]; 10 μM): 1.79 | Ratio of 4-MU amount vs. positive control ([1]; 100 μM): 1.19 | Ratio of 4-MU amount vs. positive control ([1]; 1000 μM): 1.23 | Chlorophyll concentration (Arabidopsis thaliana): 6.29 mg/L

O=C1C(Cl)=C(Cl)C(=O)c2cc([N+](=O)[O-])ccc21 [Example 9, 2,3-Dichloro-6-nitro-1,4-naphthoquinone]
Ratio of 4-MU amount vs. positive control ([1]; 1 μM): 0.17 | Ratio of 4-MU amount vs. positive control ([1]; 10 μM): 0.91 | Ratio of 4-MU amount vs. positive control ([1]; 100 μM): 0.66 | Ratio of 4-MU amount vs. positive control ([1]; 1000 μM): 0.48

COC1=CC(=O)c2ccccc2C1=O [Example 11, 2-Methoxy-1,4-naphthoquinone]
Ratio of 4-MU amount vs. positive control ([1]; 1 μM): 0.06 | Ratio of 4-MU amount vs. positive control ([1]; 10 μM): 0.04 | Ratio of 4-MU amount vs. positive control ([1]; 100 μM): 0.21 | Ratio of 4-MU amount vs. positive control ([1]; 1000 μM): 0.11

O=C1C(Cl)=C(Cl)C(=O)c2ccccc21 [Example 6, 2,3-Dichloro-1,4-naphthoquinone]
Survival rate (maize [2]): 53% | Ratio of 4-MU amount vs. positive control ([1]; 1 μM): 0.47 | Ratio of 4-MU amount vs. positive control ([1]; 10 μM): 5.12 | Ratio of 4-MU amount vs. positive control ([1]; 100 μM): 1.86 | Ratio of 4-MU amount vs. positive control ([1]; 1000 μM): 1.16 | Above-ground part weight (maize [3]): 0.726 g/plant | Chlorophyll concentration (Arabidopsis thaliana): 6.21 mg/L

CC1=CC(=O)c2c(O)cccc2C1=O [Example 4, 5-Hydroxy-2-methyl-1,4-naphthoquinone]
Ratio of 4-MU amount vs. positive control ([1]; 1 μM): 0.13 | Ratio of 4-MU amount vs. positive control ([1]; 10 μM): 1.0 | Ratio of 4-MU amount vs. positive control ([1]; 100 μM): 0.18 | Ratio of 4-MU amount vs. positive control ([1]; 1000 μM): 0.06

CC(C)=CC[C@@H](OC(=O)CC(C)(C)O)C1=CC(=O)c2c(O)ccc(O)c2C1=O [Example 17, β-Hydroxyisovalerylshikonin]
Ratio of 4-MU amount vs. positive control ([1]; 1 μM): 0.10 | Ratio of 4-MU amount vs. positive control ([1]; 10 μM): 0.71 | Ratio of 4-MU amount vs. positive control ([1]; 100 μM): 0.80 | Ratio of 4-MU amount vs. positive control ([1]; 1000 μM): 0.25 | Chlorophyll concentration (Arabidopsis thaliana): 5.57 mg/L

O=C1C=CC(=O)c2c(O)cccc21 [Example 3, 5-Hydroxy-1,4-naphthoquinone]
Ratio of 4-MU amount vs. positive control ([1]; 1 μM): 0.17 | Ratio of 4-MU amount vs. positive control ([1]; 10 μM): 0.14 | Ratio of 4-MU amount vs. positive control ([1]; 100 μM): 0.59 | Ratio of 4-MU amount vs. positive control ([1]; 1000 μM): 0.46

CC(=O)O[C@H](CC=C(C)C)C1=CC(=O)c2c(O)ccc(O)c2C1=O [Example 14, Acetylshikonin]
Ratio of 4-MU amount vs. positive control ([1]; 1 μM): 0.05 | Ratio of 4-MU amount vs. positive control ([1]; 10 μM): 1.03 | Ratio of 4-MU amount vs. positive control ([1]; 100 μM): 1.00 | Ratio of 4-MU amount vs. positive control ([1]; 1000 μM): 0.81 | Chlorophyll concentration (Arabidopsis thaliana): 5.73 mg/L

CCC(C)C(=O)O[C@H](CC=C(C)C)C1=CC(=O)c2c(O)ccc(O)c2C1=O (stereo partly drawn) [Example 18, α-Methyl-n-butylshikonin]
Ratio of 4-MU amount vs. positive control ([1]; 1 μM): 0.02 | Ratio of 4-MU amount vs. positive control ([1]; 10 μM): 1.00 | Ratio of 4-MU amount vs. positive control ([1]; 100 μM): 1.40 | Ratio of 4-MU amount vs. positive control ([1]; 1000 μM): 2.76

NC1=C(Cl)C(=O)c2ccccc2C1=O [Example 12, 2-Amino-3-chloro-1,4-naphthoquinone]
Ratio of 4-MU amount vs. positive control ([1]; 1 μM): 0.06 | Ratio of 4-MU amount vs. positive control ([1]; 10 μM): 0.15 | Ratio of 4-MU amount vs. positive control ([1]; 100 μM): 0.19 | Ratio of 4-MU amount vs. positive control ([1]; 1000 μM): 0.14

CC(C)=CC[C@@H](O)C1=CC(=O)c2c(O)ccc(O)c2C1=O [Example 13, Shikonin]
Ratio of 4-MU amount vs. positive control ([1]; 1 μM): 0.04 | Ratio of 4-MU amount vs. positive control ([1]; 10 μM): 0.92 | Ratio of 4-MU amount vs. positive control ([1]; 100 μM): 1.52 | Ratio of 4-MU amount vs. positive control ([1]; 1000 μM): 0.85 | Chlorophyll concentration (Arabidopsis thaliana): 6.28 mg/L

CC(C)=CCC(OC(=O)CC(C)C)C1=CC(=O)c2c(O)ccc(O)c2C1=O (stereo not shown) [Example 16, Isovalerylshikonin]
Ratio of 4-MU amount vs. positive control ([1]; 1 μM): 0.04 | Ratio of 4-MU amount vs. positive control ([1]; 10 μM): 0.93 | Ratio of 4-MU amount vs. positive control ([1]; 100 μM): 0.85 | Ratio of 4-MU amount vs. positive control ([1]; 1000 μM): 0.76

CC(C)=CC[C@H](O)C1=CC(=O)c2c(O)ccc(O)c2C1=O [Example 20, Alkannin]
Ratio of 4-MU amount vs. positive control ([1]; 1 μM): 0.04 | Ratio of 4-MU amount vs. positive control ([1]; 10 μM): 0.11 | Ratio of 4-MU amount vs. positive control ([1]; 100 μM): 0.62 | Ratio of 4-MU amount vs. positive control ([1]; 1000 μM): 1.13

O=C1C=C(O)C(=O)c2ccccc21 [Example 2, 2-Hydroxy-1,4-naphthoquinone]
Ratio of 4-MU amount vs. positive control ([1]; 1 μM): 0.14 | Ratio of 4-MU amount vs. positive control ([1]; 10 μM): 0.15 | Ratio of 4-MU amount vs. positive control ([1]; 100 μM): 0.47 | Ratio of 4-MU amount vs. positive control ([1]; 1000 μM): 0.04

CC1=CC(=O)c2ccccc2C1=O [Example 10, 2-Methyl-1,4-naphthoquinone]
Ratio of 4-MU amount vs. positive control ([1]; 1 μM): 0.04 | Ratio of 4-MU amount vs. positive control ([1]; 10 μM): 0.05 | Ratio of 4-MU amount vs. positive control ([1]; 100 μM): 0.09 | Ratio of 4-MU amount vs. positive control ([1]; 1000 μM): 0.08

O=C1C(Cl)=C(Cl)C(=O)c2c1cccc2[N+](=O)[O-] [Example 8, 2,3-Dichloro-5-nitro-1,4-naphthoquinone]
Ratio of 4-MU amount vs. positive control ([1]; 1 μM): 0.15 | Ratio of 4-MU amount vs. positive control ([1]; 10 μM): 1.00 | Ratio of 4-MU amount vs. positive control ([1]; 100 μM): 0.38 | Ratio of 4-MU amount vs. positive control ([1]; 1000 μM): 0.46
